According to ChEMBL document CHEMBL3991601, “The target landscape of clinical kinase drugs” (Science, 2017):
Activity calls are given as the source filed them.

What was measured:
[1] = molecular target: cAMP-dependent protein kinase catalytic subunit alpha (Homo sapiens, UniProt P17612)
[2] = molecular target: Dual specificity protein kinase CLK1 (Homo sapiens, UniProt P49759)
[3] = molecular target: T1, Heme oxygenase 2 (Homo sapiens, UniProt P30519)
T1 sequence (P30519 whole entry): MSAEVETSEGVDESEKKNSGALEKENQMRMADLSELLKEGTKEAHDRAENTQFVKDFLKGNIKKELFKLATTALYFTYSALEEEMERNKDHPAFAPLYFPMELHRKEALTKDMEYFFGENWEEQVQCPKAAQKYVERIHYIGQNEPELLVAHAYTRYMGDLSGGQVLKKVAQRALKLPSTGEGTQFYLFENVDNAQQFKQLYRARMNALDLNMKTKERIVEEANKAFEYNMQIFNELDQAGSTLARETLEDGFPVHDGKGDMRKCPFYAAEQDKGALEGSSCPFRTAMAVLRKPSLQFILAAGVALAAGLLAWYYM

[4] = molecular target: T2, Receptor-type tyrosine-protein kinase FLT3 (Homo sapiens, UniProt P36888)
T2 sequence (P36888 whole entry): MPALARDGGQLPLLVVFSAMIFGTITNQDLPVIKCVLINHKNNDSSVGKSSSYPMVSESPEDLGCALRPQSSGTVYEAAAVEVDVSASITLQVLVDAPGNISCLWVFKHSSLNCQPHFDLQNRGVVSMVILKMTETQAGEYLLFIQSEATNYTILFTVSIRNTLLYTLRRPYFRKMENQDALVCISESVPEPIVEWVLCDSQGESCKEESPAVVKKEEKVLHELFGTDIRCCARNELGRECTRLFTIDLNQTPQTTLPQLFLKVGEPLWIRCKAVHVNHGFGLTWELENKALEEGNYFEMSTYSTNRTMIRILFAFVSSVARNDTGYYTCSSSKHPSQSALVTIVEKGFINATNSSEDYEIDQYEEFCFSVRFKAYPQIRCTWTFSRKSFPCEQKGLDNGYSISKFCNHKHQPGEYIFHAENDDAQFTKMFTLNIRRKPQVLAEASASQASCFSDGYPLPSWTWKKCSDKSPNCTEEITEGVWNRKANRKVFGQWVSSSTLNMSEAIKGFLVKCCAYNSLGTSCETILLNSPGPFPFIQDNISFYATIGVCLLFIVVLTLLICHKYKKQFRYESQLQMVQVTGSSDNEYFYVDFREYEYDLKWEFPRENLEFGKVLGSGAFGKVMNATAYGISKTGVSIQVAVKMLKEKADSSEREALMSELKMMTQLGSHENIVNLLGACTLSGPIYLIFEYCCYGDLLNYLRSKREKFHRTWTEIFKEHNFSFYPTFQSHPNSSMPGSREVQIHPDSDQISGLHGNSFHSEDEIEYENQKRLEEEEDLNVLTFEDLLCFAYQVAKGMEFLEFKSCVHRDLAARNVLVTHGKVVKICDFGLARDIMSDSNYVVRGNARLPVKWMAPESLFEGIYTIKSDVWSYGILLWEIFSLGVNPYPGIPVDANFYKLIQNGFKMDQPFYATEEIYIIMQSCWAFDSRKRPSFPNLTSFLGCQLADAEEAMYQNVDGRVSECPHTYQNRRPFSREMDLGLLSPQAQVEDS

[5] = molecular target: T3, Peroxisomal acyl-coenzyme A oxidase 1 (Homo sapiens, UniProt Q15067)
T3 sequence (Q15067 whole entry): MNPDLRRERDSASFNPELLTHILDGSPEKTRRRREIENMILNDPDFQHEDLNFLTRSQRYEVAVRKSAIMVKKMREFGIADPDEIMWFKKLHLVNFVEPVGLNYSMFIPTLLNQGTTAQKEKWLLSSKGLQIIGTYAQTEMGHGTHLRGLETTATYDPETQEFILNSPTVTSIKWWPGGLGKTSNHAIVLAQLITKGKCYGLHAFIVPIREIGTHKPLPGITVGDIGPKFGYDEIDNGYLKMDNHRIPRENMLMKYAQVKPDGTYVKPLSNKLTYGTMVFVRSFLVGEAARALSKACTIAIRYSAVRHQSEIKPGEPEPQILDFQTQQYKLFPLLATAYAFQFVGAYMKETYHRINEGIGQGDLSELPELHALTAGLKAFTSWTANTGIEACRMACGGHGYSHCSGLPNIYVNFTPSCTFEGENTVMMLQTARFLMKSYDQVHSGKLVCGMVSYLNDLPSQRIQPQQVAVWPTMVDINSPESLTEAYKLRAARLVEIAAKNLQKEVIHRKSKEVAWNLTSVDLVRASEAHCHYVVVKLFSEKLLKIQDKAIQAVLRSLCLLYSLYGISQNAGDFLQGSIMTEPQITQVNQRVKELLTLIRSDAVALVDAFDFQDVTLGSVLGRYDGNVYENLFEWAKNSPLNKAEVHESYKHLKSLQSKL

[6] = molecular target: Cyclin-dependent kinase 6 (Homo sapiens, UniProt Q00534)
[7] = molecular target: Mitogen-activated protein kinase 11 (Homo sapiens, UniProt Q15759)
[8] = molecular target: Aurora kinase B (Homo sapiens, UniProt Q96GD4)
[9] = molecular target: Protein kinase C delta type (Homo sapiens, UniProt Q05655)
[10] = molecular target: Elongation factor Tu, mitochondrial (Homo sapiens, UniProt P49411)
[11] = molecular target: T4, STE20-related kinase adapter protein alpha (Homo sapiens, UniProt Q7RTN6)
T4 sequence (Q7RTN6 whole entry): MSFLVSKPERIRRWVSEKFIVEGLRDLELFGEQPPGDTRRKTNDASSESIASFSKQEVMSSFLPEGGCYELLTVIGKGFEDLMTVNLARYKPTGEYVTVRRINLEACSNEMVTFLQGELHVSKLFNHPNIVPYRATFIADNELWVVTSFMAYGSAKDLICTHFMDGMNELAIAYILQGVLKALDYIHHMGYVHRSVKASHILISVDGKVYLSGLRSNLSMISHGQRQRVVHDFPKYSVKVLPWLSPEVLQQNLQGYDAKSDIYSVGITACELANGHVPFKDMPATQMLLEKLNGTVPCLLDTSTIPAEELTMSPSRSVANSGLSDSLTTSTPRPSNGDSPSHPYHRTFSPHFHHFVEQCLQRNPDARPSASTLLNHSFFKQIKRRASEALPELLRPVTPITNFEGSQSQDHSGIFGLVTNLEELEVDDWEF

[12] = molecular target: Dual specificity mitogen-activated protein kinase kinase 2 (Homo sapiens, UniProt P36507)
Also: in the data inactive means no Kd found up to 30 µM.

Chain of Cyclin-dependent kinase 6 (Q00534 whole entry): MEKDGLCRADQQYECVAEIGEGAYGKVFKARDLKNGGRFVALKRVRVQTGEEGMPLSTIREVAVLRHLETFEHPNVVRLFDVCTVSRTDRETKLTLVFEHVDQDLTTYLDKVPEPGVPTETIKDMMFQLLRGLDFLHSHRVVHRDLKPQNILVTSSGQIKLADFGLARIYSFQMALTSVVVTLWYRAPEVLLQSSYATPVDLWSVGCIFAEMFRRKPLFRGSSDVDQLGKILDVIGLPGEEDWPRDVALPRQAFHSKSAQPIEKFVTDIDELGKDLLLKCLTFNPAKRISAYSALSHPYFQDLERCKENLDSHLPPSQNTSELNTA
Chain of Aurora kinase B (Q96GD4 whole entry): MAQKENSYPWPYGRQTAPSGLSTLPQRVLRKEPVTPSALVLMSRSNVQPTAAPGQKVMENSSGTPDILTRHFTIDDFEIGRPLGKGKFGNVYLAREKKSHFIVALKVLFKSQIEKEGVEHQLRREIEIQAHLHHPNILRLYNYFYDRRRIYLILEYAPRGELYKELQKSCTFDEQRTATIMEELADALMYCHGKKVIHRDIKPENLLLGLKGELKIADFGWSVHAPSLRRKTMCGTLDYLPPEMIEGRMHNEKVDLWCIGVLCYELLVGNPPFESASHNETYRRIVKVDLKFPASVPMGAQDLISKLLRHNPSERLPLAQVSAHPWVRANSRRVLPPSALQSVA
Chain of Dual specificity mitogen-activated protein kinase kinase 2 (P36507 whole entry): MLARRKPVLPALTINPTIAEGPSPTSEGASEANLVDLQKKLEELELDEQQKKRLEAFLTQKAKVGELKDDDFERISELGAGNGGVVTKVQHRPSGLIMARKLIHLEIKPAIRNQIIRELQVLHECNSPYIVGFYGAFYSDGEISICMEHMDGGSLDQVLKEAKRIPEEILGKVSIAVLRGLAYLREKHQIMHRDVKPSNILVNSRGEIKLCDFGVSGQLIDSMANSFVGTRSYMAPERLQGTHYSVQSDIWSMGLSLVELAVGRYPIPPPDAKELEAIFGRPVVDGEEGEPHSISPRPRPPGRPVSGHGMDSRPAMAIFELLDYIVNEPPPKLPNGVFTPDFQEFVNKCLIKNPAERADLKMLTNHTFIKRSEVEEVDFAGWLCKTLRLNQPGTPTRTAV
Chain of Dual specificity protein kinase CLK1 (P49759 whole entry): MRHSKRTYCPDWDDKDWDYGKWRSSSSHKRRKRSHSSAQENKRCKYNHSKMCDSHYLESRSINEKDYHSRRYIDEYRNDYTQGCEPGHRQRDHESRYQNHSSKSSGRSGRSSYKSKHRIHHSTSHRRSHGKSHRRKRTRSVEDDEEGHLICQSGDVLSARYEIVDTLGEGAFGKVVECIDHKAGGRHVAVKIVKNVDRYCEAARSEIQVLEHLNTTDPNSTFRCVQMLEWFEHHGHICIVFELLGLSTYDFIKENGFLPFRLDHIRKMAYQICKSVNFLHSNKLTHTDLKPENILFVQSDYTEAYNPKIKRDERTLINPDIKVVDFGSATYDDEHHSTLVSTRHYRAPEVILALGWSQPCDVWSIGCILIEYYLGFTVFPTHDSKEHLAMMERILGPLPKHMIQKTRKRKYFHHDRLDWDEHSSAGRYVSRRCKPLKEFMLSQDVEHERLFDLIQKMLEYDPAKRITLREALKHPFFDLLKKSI
Chain of Mitogen-activated protein kinase 11 (Q15759 whole entry): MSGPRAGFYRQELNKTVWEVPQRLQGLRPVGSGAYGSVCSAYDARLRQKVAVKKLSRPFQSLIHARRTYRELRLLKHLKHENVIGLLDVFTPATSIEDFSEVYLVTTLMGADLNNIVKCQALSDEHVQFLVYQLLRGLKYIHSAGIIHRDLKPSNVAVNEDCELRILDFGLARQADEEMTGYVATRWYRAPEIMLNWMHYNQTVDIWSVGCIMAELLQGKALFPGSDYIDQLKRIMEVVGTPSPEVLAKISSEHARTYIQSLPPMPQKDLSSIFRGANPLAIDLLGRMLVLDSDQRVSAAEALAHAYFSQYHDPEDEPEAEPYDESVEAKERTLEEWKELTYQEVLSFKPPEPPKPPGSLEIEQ
Chain of Protein kinase C delta type (Q05655 whole entry): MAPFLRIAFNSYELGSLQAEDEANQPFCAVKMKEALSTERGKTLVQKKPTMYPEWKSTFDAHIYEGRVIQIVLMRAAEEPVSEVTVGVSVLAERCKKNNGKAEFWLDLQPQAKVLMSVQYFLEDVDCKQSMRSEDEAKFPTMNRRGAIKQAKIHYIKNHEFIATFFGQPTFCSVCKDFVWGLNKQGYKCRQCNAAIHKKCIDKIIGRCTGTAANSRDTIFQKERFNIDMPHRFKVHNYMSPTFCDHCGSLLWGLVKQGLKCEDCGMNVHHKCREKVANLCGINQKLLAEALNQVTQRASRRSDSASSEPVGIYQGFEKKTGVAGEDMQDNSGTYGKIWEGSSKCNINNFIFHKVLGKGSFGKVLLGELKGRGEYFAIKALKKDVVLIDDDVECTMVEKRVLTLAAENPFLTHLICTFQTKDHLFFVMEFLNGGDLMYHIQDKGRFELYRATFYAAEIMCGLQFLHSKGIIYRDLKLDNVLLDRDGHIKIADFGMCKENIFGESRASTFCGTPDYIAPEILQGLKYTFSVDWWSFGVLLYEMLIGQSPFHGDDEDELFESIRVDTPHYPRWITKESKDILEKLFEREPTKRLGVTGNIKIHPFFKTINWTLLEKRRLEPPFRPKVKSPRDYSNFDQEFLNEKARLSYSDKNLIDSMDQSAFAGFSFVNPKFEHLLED

Kd [1]	Kd [2]	Kd [3]	Kd [4]	Kd [5]	Kd [6]	Kd [7]	Kd [8]	Kd [9]	Kd [10]	Kd [11]	Kd [12]	SMILES
–	0.586 µM (active)	> 30 µM (inactive)	–	> 30 µM (inactive)	1.72 µM (active)	> 30 µM (inactive)	–	–	> 30 µM (inactive)	> 30 µM (inactive)	> 30 µM (inactive)	Cc1nc(N)sc1-c1ccnc(Nc2ccc(N3CCOCC3)cc2)n1 [CYC-116]
–	–	> 30 µM (inactive)	–	> 30 µM (inactive)	> 30 µM (inactive)	> 30 µM (inactive)	–	–	> 30 µM (inactive)	> 30 µM (inactive)	> 30 µM (inactive)	Cc1cc(Nc2cc(N3CCN(C)CC3)nc(/C=C/c3ccccc3)n2)n[nH]1 [ENMD-2076]
–	–	> 30 µM (inactive)	–	> 30 µM (inactive)	> 30 µM (inactive)	–	–	–	> 30 µM (inactive)	> 30 µM (inactive)	–	CCn1c(-c2nonc2N)nc2c(C#CC(C)(C)O)ncc(OC[C@H]3CCCNC3)c21 [GSK-690693]
–	> 30 µM (inactive)	> 30 µM (inactive)	–	> 30 µM (inactive)	> 30 µM (inactive)	> 30 µM (inactive)	–	> 30 µM (inactive)	> 30 µM (inactive)	> 30 µM (inactive)	–	OCCn1cc(-c2cnc3nnn(Cc4ccc5ncccc5c4)c3n2)cn1 [PF-04217903]

The next lines start with the compound.

SMILES	Kd [1]	Kd [2]	Kd [3]	Kd [4]	Kd [5]	Kd [6]	Kd [7]	Kd [8]	Kd [9]	Kd [10]	Kd [11]	Kd [12]
CNS(=O)(=O)Nc1nccc(Cc2c(C)c3ccc(Oc4ncccn4)cc3oc2=O)c1F [AVUTOMETINIB]	> 30 µM (inactive)	> 30 µM (inactive)	> 30 µM (inactive)	> 30 µM (inactive)	> 30 µM (inactive)	> 30 µM (inactive)	> 30 µM (inactive)	> 30 µM (inactive)	> 30 µM (inactive)	> 30 µM (inactive)	> 30 µM (inactive)	–
CCc1cnn2c(NCc3ccc[n+]([O-])c3)cc(N3CCCC[C@H]3CCO)nc12 [DINACICLIB]	–	0.714 µM (active)	> 30 µM (inactive)	> 30 µM (inactive)	> 30 µM (inactive)	–	> 30 µM (inactive)	–	> 30 µM (inactive)	> 30 µM (inactive)	> 30 µM (inactive)	–
CN1CCN(c2ccc3nc(-c4c(N)c5c(F)cccc5[nH]c4=O)[nH]c3c2)CC1 [DOVITINIB]	–	–	> 30 µM (inactive)	–	> 30 µM (inactive)	2.83 µM (active)	–	–	–	> 30 µM (inactive)	> 30 µM (inactive)	–
COC(=O)[C@@]1(O)C[C@H]2O[C@]1(C)n1c3ccccc3c3c4c(c5c6ccccc6n2c5c31)C(=O)NC4 [K-252A]	> 30 µM (inactive)	0.01 µM (active)	> 30 µM (inactive)	0.227 µM (active)	> 30 µM (inactive)	0.399 µM (active)	> 30 µM (inactive)	0.353 µM (active)	–	> 30 µM (inactive)	> 30 µM (inactive)	–
O=C(O)[C@]1(Cc2cccc(Nc3nccs3)n2)CC[C@@H](Oc2cccc(Cl)c2F)CC1 [MK-5108]	> 30 µM (inactive)	> 30 µM (inactive)	> 30 µM (inactive)	> 30 µM (inactive)	–	> 30 µM (inactive)	> 30 µM (inactive)	–	> 30 µM (inactive)	> 30 µM (inactive)	> 30 µM (inactive)	> 30 µM (inactive)
Cc1cn(-c2cc(NC(=O)c3ccc(C)c(Nc4nccc(-c5cccnc5)n4)c3)cc(C(F)(F)F)c2)cn1 [NILOTINIB]	–	–	> 30 µM (inactive)	–	–	> 30 µM (inactive)	–	–	–	> 30 µM (inactive)	> 30 µM (inactive)	–
C1=C/COCc2cc(ccc2OCCN2CCCC2)Nc2nccc(n2)-c2cccc(c2)COC/1 [PACRITINIB]	> 30 µM (inactive)	0.138 µM	> 30 µM (inactive)	–	> 30 µM (inactive)	> 30 µM (inactive)	> 30 µM (inactive)	0.641 µM (active)	> 30 µM (inactive)	> 30 µM (inactive)	> 30 µM (inactive)	> 30 µM (inactive)
C=CC(=O)N1CCC(Oc2cc3c(Nc4ccc(Cl)c(Cl)c4F)ncnc3cc2OC)CC1 [POZIOTINIB]	> 30 µM (inactive)	> 30 µM (inactive)	> 30 µM (inactive)	> 30 µM (inactive)	> 30 µM (inactive)	> 30 µM (inactive)	> 30 µM (inactive)	–	> 30 µM (inactive)	> 30 µM (inactive)	> 30 µM (inactive)	> 30 µM (inactive)
CNC(=O)c1cc(Oc2ccc(NC(=O)Nc3ccc(Cl)c(C(F)(F)F)c3)c(F)c2)ccn1 [REGORAFENIB]	> 30 µM (inactive)	2.11 µM (active)	> 30 µM (inactive)	–	> 30 µM (inactive)	> 30 µM (inactive)	1.91 µM (active)	> 30 µM (inactive)	> 30 µM (inactive)	> 30 µM (inactive)	> 30 µM (inactive)	> 30 µM (inactive)
O=C(Nc1cccc(Cl)c1)Nc1ncc(CCNc2ncnc3ccsc23)s1 [SNS-314]	–	> 30 µM (inactive)	> 30 µM (inactive)	–	> 30 µM (inactive)	> 30 µM (inactive)	> 30 µM (inactive)	–	–	> 30 µM (inactive)	> 30 µM (inactive)	–
Nc1nc(N)c2nc(-c3cccc(O)c3)c(-c3cccc(O)c3)nc2n1 [TG100-115]	–	–	> 30 µM (inactive)	–	> 30 µM (inactive)	> 30 µM (inactive)	–	–	–	> 30 µM (inactive)	> 30 µM (inactive)	–
COc1cc2nccc(Oc3ccc(NC(=O)Nc4cc(C)on4)c(Cl)c3)c2cc1OC [TIVOZANIB]	> 30 µM (inactive)	> 30 µM (inactive)	> 30 µM (inactive)	–	> 30 µM (inactive)	> 30 µM (inactive)	–	–	> 30 µM (inactive)	> 30 µM (inactive)	> 30 µM (inactive)	> 30 µM (inactive)
